According to the CheMixHub viscosity set:
Where “and” joins values, the source holds several entries; their conditions need not be identical. Equal entries are not always repeated.

Assay: xn = mol fraction of the nth substance listed

Cc1cccc(C)c1 + c1ccccc1
viscosity [mPa·s], 101 kPa
Settings | x1 = 0.0977 | x1 = 0.2098 | x1 = 0.2979 | x1 = 0.4028 | x1 = 0.5018 | x1 = 0.5981 | x1 = 0.7046 | x1 = 0.8007 | x1 = 0.898
303 K | 0.5478 | 0.5424 | 0.5393 | 0.5373 | 0.5342 | 0.5374 | 0.536 | 0.5395 | 0.5417
313 K | 0.4793 | 0.4781 | 0.4769 | 0.4767 | 0.4789 | 0.4796 | 0.4818 | 0.4843 | 0.4875
323 K | 0.4302 | 0.4308 | 0.4285 | 0.4291 | 0.4307 | 0.4342 | 0.4361 | 0.4397 | 0.443

CCCCn1cc[n+](C)c1.F[B-](F)(F)F + CN(C)C=O
101.33 kPa
Settings | viscosity [mPa·s]
293.15 K, x1 = 0.24 | 8.99
293.15 K, x1 = 0.83 | 76.67
298.15 K, x1 = 0.335 | 6.371
298.15 K, x1 = 0.34 | 8.92
298.15 K, x1 = 0.3986 | 7.783
298.15 K, x1 = 0.8976 | 78.41
298.15 K, x1 = 0.94 | 88.43
303.15 K, x1 = 0.43 | 8.05
303.15 K, x1 = 0.94 | 74.19
308.15 K, x1 = 0.55 | 9.58

CCCCOCCOCCO + CCN(CC)CC
viscosity [mPa·s], 100 kPa
Settings | 298.15 K | 303.15 K | 308.15 K
x1 = 0.05083 | 0.4832 | 0.4499 | 0.4246
x1 = 0.1 | 0.6109 | 0.5597 | 0.5234
x1 = 0.15 | 0.7524 | 0.6836 | 0.637
x1 = 0.2 | 0.9081 | 0.8131 | 0.7543
x1 = 0.3 | 1.246 | 1.108 | 1.021
x1 = 0.3999 | 1.641 | 1.447 | 1.324
x1 = 0.5 | 2.105 | 1.837 | 1.669
x1 = 0.5999 | 2.629 | 2.278 | 2.067
x1 = 0.6995 | 3.213 | 2.776 | 2.496
x1 = 0.8 | 3.822 | 3.271 | 2.93
x1 = 0.8998 | 4.474 | 3.817 | 3.419
x1 = 0.9499 | 4.793 | 4.075 | 3.631

O=S1(=O)CCCC1 + CCCO
viscosity [mPa·s], 101 kPa
Settings | x1 = 0.0761 | x1 = 0.1702 | x1 = 0.2436 | x1 = 0.3357 | x1 = 0.4393 | x1 = 0.5374 | x1 = 0.6403 | x1 = 0.7554 | x1 = 0.8835
303.15 K | 1.648 | 1.731 | 1.863 | 2.093 | 2.443 | 2.894 | 3.567 | 4.714 | 6.855
308.15 K | 1.477 | 1.551 | 1.671 | 1.876 | 2.191 | 2.595 | 3.198 | 4.214 | 6.07
313.15 K | 1.329 | 1.399 | 1.506 | 1.691 | 1.976 | 2.342 | 2.884 | 3.788 | 5.424

NCCCO + CCCC[N+](CCCC)(CCCC)CCCC.[Br-]
viscosity, 101.33 kPa
Settings | 293.15 K | 298.15 K | 303.15 K | 308.15 K | 313.15 K | 318.15 K | 323.15 K
x1 = 0.8 | 113.9 mPa·s | 84.69 mPa·s | 63.71 mPa·s | 49.65 mPa·s | 38.79 mPa·s | 30.76 mPa·s | 24.94 mPa·s
x1 = 0.9 | 79.29 mPa·s and 65.55 mPa·s | 60.03 mPa·s and 50.16 mPa·s | 46.01 mPa·s and 38.6 mPa·s | 35.84 mPa·s and 29.98 mPa·s | 28.31 mPa·s and 23.97 mPa·s | 22.73 mPa·s and 19.27 mPa·s | 18.62 mPa·s and 15.76 mPa·s

CC(O)CC(C)(C)O (stereo not drawn) + Cc1ccccc1
viscosity [mPa·s], 101 kPa
Settings | x1 = 0.1346 | x1 = 0.1954 | x1 = 0.2938 | x1 = 0.3816 | x1 = 0.4929 | x1 = 0.5952 | x1 = 0.6969 | x1 = 0.7998 | x1 = 0.8958
308.15 K | 0.6243 | 0.7011 | 0.8906 | 1.182 | 1.708 | 2.106 | 3.293 | 5.905 | 9.863
318.15 K | 0.4797 | 0.5572 | 0.739 | 0.983 | 1.41 | 1.753 | 2.719 | 4.872 | 8.571

CC(O)CC(C)(C)O (stereo not drawn) + Clc1ccccc1
viscosity [mPa·s], 101 kPa
Settings | x1 = 0.0989 | x1 = 0.1989 | x1 = 0.2931 | x1 = 0.3916 | x1 = 0.4927 | x1 = 0.5867 | x1 = 0.6888 | x1 = 0.7938 | x1 = 0.8999
308.15 K | 0.7755 | 0.9332 | 1.164 | 1.513 | 2.151 | 2.823 | 4.238 | 6.453 | 10.85
318.15 K | 0.6372 | 0.7412 | 0.9438 | 1.242 | 1.814 | 2.278 | 3.416 | 5.241 | 9.228

Cc1ccccc1N + NCCO
viscosity [mPa·s], 100 kPa
Settings | x1 = 0.0997 | x1 = 0.1749 | x1 = 0.2629 | x1 = 0.3629 | x1 = 0.4797 | x1 = 0.5707 | x1 = 0.6849 | x1 = 0.7826 | x1 = 0.8935
303.15 K | 13.32 | 12.49 | 11.51 | 10.39 | 9.093 | 8.076 | 6.799 | 5.704 | 4.459
308.15 K | 11.11 | 10.42 | 9.62 | 8.704 | 7.633 | 6.796 | 5.745 | 4.842 | 3.815
313.15 K | 9.063 | 8.521 | 7.884 | 7.159 | 6.309 | 5.646 | 4.812 | 4.095 | 3.278
318.15 K | 7.032 | 6.632 | 6.161 | 5.624 | 4.994 | 4.503 | 3.884 | 3.352 | 2.744

O=S(=O)(Cl)Cl + Cc1ccccc1
298.15 K, 101 kPa
Settings | viscosity [mPa·s]
x1 = 0.207 | 0.5841
x1 = 0.373 | 0.6144
x1 = 0.572 | 0.6457
x1 = 0.713 | 0.6642
x1 = 0.826 | 0.6759

O=S(=O)(Cl)Cl + Cc1cc(C)cc(C)c1
298.15 K, 101 kPa
Settings | viscosity [mPa·s]
x1 = 0.172 | 0.6735
x1 = 0.323 | 0.6885
x1 = 0.515 | 0.6997
x1 = 0.645 | 0.7028
x1 = 0.669 | 0.7025
x1 = 0.804 | 0.6976

O=S1(=O)CCCC1 + COCCO
303.15 K, 101 kPa
Settings | viscosity [mPa·s]
x1 = 0.0483 | 1.2
x1 = 0.0994 | 1.054
x1 = 0.1962 | 1.489
x1 = 0.2953 | 2.053
x1 = 0.3486 | 2.251
x1 = 0.4007 | 2.703
x1 = 0.4569 | 3.258
x1 = 0.4997 | 3.863
x1 = 0.5991 | 4.997
x1 = 0.7126 | 6.301
x1 = 0.7971 | 7.413
x1 = 0.8496 | 8.345
x1 = 0.8986 | 9.013

OC1COCOC1 + CC(O)CO
viscosity [mPa·s], 101 kPa
Settings | x1 = 0.1001 | x1 = 0.2022 | x1 = 0.2993 | x1 = 0.3988 | x1 = 0.5 | x1 = 0.5991 | x1 = 0.7069 | x1 = 0.8004 | x1 = 0.9002
298.15 K | 40.55 | 35.63 | 31.87 | 28.95 | 26.18 | 23.35 | 20.25 | 17.68 | 15.39
308.15 K | 23.27 | 20.32 | 18.06 | 16.28 | 14.83 | 13.52 | 12.12 | 10.93 | 9.829
318.15 K | 14.08 | 12.09 | 10.67 | 9.707 | 9.031 | 8.445 | 7.772 | 7.179 | 6.681

O=S1(=O)CCCC1 + OCCOCCO
303.15 K, 101 kPa
Settings | viscosity [mPa·s]
x1 = 0.0517 | 20.1
x1 = 0.0984 | 18.62
x1 = 0.206 | 15.85
x1 = 0.2958 | 13.99
x1 = 0.3988 | 12.28
x1 = 0.4469 | 11.69
x1 = 0.4997 | 11.11
x1 = 0.5346 | 10.81
x1 = 0.603 | 10.31
x1 = 0.7047 | 9.829
x1 = 0.7896 | 9.536
x1 = 0.8987 | 9.51
x1 = 0.9348 | 9.614

C1CC[NH2+]C1.CCCCCCCC(=O)[O-] + O
viscosity [mPa·s], 101 kPa
Settings | x1 = 0.1001 | x1 = 0.1939 | x1 = 0.3059 | x1 = 0.3999 | x1 = 0.5006 | x1 = 0.56 | x1 = 0.7293 | x1 = 0.8443
293.15 K | 19.1 | 30.6 | 44.2 | 53 | 58.7 | 61.3 | 67.6 | 70.6
298.15 K | 17 | 28.7 | 38.7 | 45.6 | 50.2 | 51.77 | 57.23 | 60.69
303.15 K | 15.36 | 22.52 | 32.46 | 37.47 | 40.91 | 42.49 | 46.05 | 48.99
308.15 K | 13.5 | 19.87 | 28.64 | 32.64 | 35.5 | 36.88 | 39.52 | 42.04
313.15 K | 11.56 | 17.09 | 24.55 | 27.65 | 29.82 | 30.62 | 32.72 | 34.71

O=S1(=O)CCCC1 + Cc1ccccc1
viscosity [mPa·s], 101.3 kPa
Settings | x2 = 0.1267 | x2 = 0.2458 | x2 = 0.3587 | x2 = 0.4651 | x2 = 0.5662 | x2 = 0.6617 | x2 = 0.7527 | x2 = 0.8392 | x2 = 0.9206
303.15 K | 6.052 | 3.95 | 2.732 | 2.029 | 1.557 | 1.173 | 0.9289 | 0.7548 | 0.6265
323.15 K | 3.906 | 2.662 | 1.919 | 1.458 | 1.151 | 0.8828 | 0.7151 | 0.5893 | 0.4967
